According to patent US9006433B2, “Substituted pyrimidines” (Merck Sharp & Dohme Corp., priority 2010, dated 2015):

The compounds below were run against T1, PHD2 (Homo sapiens, UniProt Q9GZT9) (assay: PHD2 inhibition assay (time resolved fluorescence, HIF-1α peptide hydroxylation / VHL complex detection)). Conditions: FLAG-tagged full length PHD2; 0.2 μM 2-oxoglutarate, 0.5 μM HIF-1α peptide.
T1 construct: FLAG-tagged full length PHD2 expressed in and purified from baculovirus-infected Sf9 cells; FLAG; made in house; host or cells: baculovirus-infected Sf9 cells
T1 sequence (Q9GZT9 whole entry, species assumed): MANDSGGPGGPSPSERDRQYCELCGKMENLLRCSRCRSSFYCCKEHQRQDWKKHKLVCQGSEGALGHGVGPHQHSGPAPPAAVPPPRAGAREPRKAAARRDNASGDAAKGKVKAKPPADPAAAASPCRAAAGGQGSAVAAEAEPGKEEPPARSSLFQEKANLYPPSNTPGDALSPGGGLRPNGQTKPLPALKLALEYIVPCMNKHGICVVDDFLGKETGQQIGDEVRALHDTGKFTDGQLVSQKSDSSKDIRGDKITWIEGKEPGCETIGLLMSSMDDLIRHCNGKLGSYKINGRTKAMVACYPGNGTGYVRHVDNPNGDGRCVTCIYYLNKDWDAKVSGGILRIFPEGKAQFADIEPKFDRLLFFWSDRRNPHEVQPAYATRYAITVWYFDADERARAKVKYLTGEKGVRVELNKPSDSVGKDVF
Assay type: biochemical
Experimental: To each well of a 96-well plate was added 1 μL of test compound in DMSO and 20 μl of assay buffer (50 mM Iris pH 7.4/0.01% Tween-20/0.1 mg/ml bovine serum albumin/10 μM ferrous sulfate/1 mM sodium ascorbate/20 μg/ml catalase) containing 0.15 μg/ml FLAG-tagged full length PHD2 expressed in and purified from baculovirus-infected Sf9 cells. After a 30 min preincubation at room temperature, the enzymatic reactions were initiated by the addition of […] of substrates (final concentrations of 0.2 μM 2-oxoglutarate and 0.5 μM HIF-1α peptide biotinyl-DLDLEMLAPYIPMDDDFQL (SEQ ID NO:1)). After 2 hr at room temperature, the reactions were terminated and signals were developed by the addition of a 25 μL quench/detection mix to a final concentration of 1 mM ortho-phenanthroline, 0.1 mM EDTA, 0.5 nM anti-(His)6 LANCE reagent (Perkin-Elmer Life Sciences), 100 nM AF647-labeled streptavidin (Invitrogen), and 2 μg/ml (His)-6-VHL complex (S. Tan(2001) Protein Expr. Purif. 21, 224-234). The ratio of time resolved fluorescence signals at 665 and 620 nm was determined, and percent inhibition was calculated relative to an uninhibited control sample run in parallel.

IC50 [nM] | SMILES
100 to 10000 | O=C(Nc1cnc(-n2cccn2)nc1O)NC1CCCC1 [Compound 5-5, 1-cyclopentyl-3-(4-hydroxy-2-(1H-pyrazol-1-yl)pyrimidin-5-yl)urea]
0.5 to 20 | O=C(Nc1cnc(-n2cccn2)nc1O)C1CCc2ccccc21 (centres unmarked) [Compound 3-53, 2,3-dihydro-N-(4-hydroxy-2-(1H-pyrazol-1-yl)pyrimidin-5-yl)-1H-indene-1-carboxamide]
20 to 100 | CS(=O)(=O)c1ccc(C(=O)Nc2cnc(-n3cccn3)nc2O)cc1 [Compound 3-16, N-(4-hydroxy-2-(1H-pyrazol-1-yl)pyrimidin-5-yl)-4-(methylsulfonyl)benzamide]
20 to 100 | CC(C)N(C(=O)Nc1cnc(-n2cccn2)nc1O)c1ccccc1 [Compound 5-8, 3-(4-hydroxy-2-(1H-pyrazol-1-yl)pyrimidin-5-yl)-1-isopropyl-1-phenylurea]
0.5 to 20 | O=C(Nc1cnc(-n2cccn2)nc1O)N(c1ccccc1)c1ccccc1 [Compound 5-7, 3-(4-hydroxy-2-(1H-pyrazol-1-yl)pyrimidin-5-yl)-1,1-diphenylurea]
0.5 to 20 | O=C(Cc1ccccc1C(F)(F)F)Nc1cnc(-n2cccn2)nc1O [Compound 3-27, 2-(2-(trifluoromethyl)phenyl)-N-(4-hydroxy-2-(1H-pyrazol-1-yl)pyrimidin-5-yl)acetamide]
0.5 to 20 | COc1cccc(CC(=O)Nc2cnc(-n3cccn3)nc2O)c1 [Compound 3-31, N-(4-hydroxy-2-(1H-pyrazol-1-yl)pyrimidin-5-yl)-2-(3-methoxyphenyl)acetamide]
0.5 to 20 | O=C(Nc1cnc(-n2cccn2)nc1O)c1ccccc1Cl [Compound 3-1, 2-chloro-N-(4-hydroxy-2-(1H-pyrazol-1-yl)pyrimidin-5-yl)benzamide]
20 to 100 | CC(C)(C)OC(=O)N1CCC(C(=O)Nc2cnc(-n3cccn3)nc2O)C1 (centres unmarked) [Compound 3-51, tert-butyl 3-(4-hydroxy-2-(1H-pyrazol-1-yl)pyrimidin-5-ylcarbamoyl)pyrrolidine-1-carboxylate]
20 to 100 | CC(C)(C)OC(=O)N1CCC(CC(=O)Nc2cnc(-n3cccn3)nc2O)CC1 [Compound 3-50, tert-butyl4-((4-hydroxy-2-(1H-pyrazol-1-yl)pyrimidin-5-ylcarbamoyl)methyl)piperidine-1-carboxylate]
0.5 to 20 | O=C(CC1CCCCC1)Nc1cnc(-n2cccn2)nc1O [Compound 3-48, 2-cyclohexyl-N-(4-hydroxy-2-(1H-pyrazol-1-yl)pyrimidin-5-yl)acetamide]
20 to 100 | O=C(Nc1cnc(-n2cccn2)nc1O)c1ccc(C(F)(F)F)cc1 [Compound 3-5, 4-(trifluoromethyl)-N-(4-hydroxy-2-(1H-pyrazol-1-yl)pyrimidin-5-yl)benzamide]
0.5 to 20 | O=C(Nc1cnc(-n2cccn2)nc1O)c1cccc(Cl)c1 [Compound 3-2, 3-chloro-N-(4-hydroxy-2-(1H-pyrazol-1-yl)pyrimidin-5-yl)benzamide]

SMILES | IC50 [nM]
O=C(Nc1cnc(-n2cccn2)nc1O)Oc1ccc(-c2ccccc2)cc1 [Compound 5-17, biphenyl-4-yl 4-hydroxy-2-(1H-pyrazol-1-yl)pyrimidin-5-ylcarbamate] | 100 to 10000
